{"source": "patent US10952992B2", "about": "“Methods of treating intraocular pressure with activators of Tie-2” (Aerpio Pharmaceuticals, Inc., priority 2015, dated 2021)", "key": {"[1]": {"test": "Example 2 plasma concentrations and pharmacokinetics after topical ocular, subcutaneous, intravitreal administration", "format": "in vivo, male New Zealand White rabbits", "description": "(§1) To measure the concentration of Compound 1 in plasma and ocular tissues following topical ocular, subcutaneous, and intravitreal administration, New Zealand White rabbits were administered Compound 1, and plasma and ocular samples were collected at pre-determined time points. Compound 1 formulations were prepared fresh on each day of dosing.\n(§2) Ocular tissue samples from both eyes of each animal were collected and weights were recorded. Plasma and ocular tissue sample concentrations of Compound 1 were determined by LC-MS/MS.\nNew Zealand White rabbits weighing 2.5 to 3.5 kg were used on this study. Rabbits were housed one per cage. Animals were not fasted and only healthy animals with no ocular illness were used. Two rabbits per group were sacrificed at each of four ocular tissue sampling time points for a total of eight rabbits per group.\n(§3) Animals were anesthetized for ocular (topical) and intravitreal dosing following the 12IA7 IACUC protocol. Each rabbit received a bolus dose of test formulation either via topical ocular administration 3 times daily on Days 1 and 2 (at 0, 6, and 12 hours), and once on Day 3 (at 0 hours) into both eyes; via intravitreal administration into both eyes once on Day 1 (at 0 hours); or via subcutaneous administration 2 times daily on Days 1 and 2 (at 0 and 8 hours) and once daily on Day 3 (at 0 hours). Doses were given within an approximately 1 hour window each day where applicable.\nEach blood sample was collected on Day 3 post dose at pre-determined time points from the rabbits via an ear vessel and placed into chilled polypropylene tubes containing sodium heparin as an anticoagulant. Samples were spun by centrifuge at 4° C. and 3,000× g for 5 minutes. Samples were maintained chilled throughout processing. Each plasma sample was placed on dry ice and stored in a freezer at −60° C. to −80° C. pending bioanalysis.\n(§4) An LC-MS/MS method was developed for the determination of Compound 1 in rabbit aqueous tissues (plasma, aqueous and vitreous humor) and solid ocular tissue samples. A pre-study standard curve was analyzed to determine the specificity, range, and lower limit of quantitation of the method. Plasma and tissue homogenate study samples were extracted and analyzed. All the samples were treated identically to the standards.\n(§5) One eight-point standard curve was used in each analytical batch. To be accepted, each batch must have had at least five of eight standards with accuracy within ±20% of nominal, except at the lower limit of quantification (LLOQ), where ±25% was acceptable.\nPharmacokinetic parameters were calculated from the time course of the plasma concentration. The maximum plasma concentration (Cmax) and time to the maximum plasma drug concentration (Tmax) were the observed values for each concentration-time profiles. The area under the plasma drug concentration-time curve (AUClast, with last being from time 0 to the last quantifiable point) was calculated using the trapezoidal formula. The mean residence time MRTlast was calculated as a ratio of AUMClast (area under the first movement curve) to AUClast."}, "[2]": {"test": "Example 2 vitreous humor concentrations", "format": "in vivo, male New Zealand White rabbits", "conditions": "for Average Peak Concentration, Vitreous Humor: suspension", "description": "as §1, §2, §3\nOn Day 1, for intravitreal administration, or on Day 3, for topical ocular and subcutaneous administration, at the appropriate ocular tissue collection time points, animals were euthanized and both eyes were enucleated immediately. Following enucleation, each eye was rinsed with phosphate-buffered saline. Ocular tissue samples from both eyes of each animal were collected at predetermined time points and weights were recorded. All the samples were frozen immediately on dry ice, and stored at −60° C. to −80° C. pending bioanalysis.\nas §4, §5"}, "[3]": {"conditions": "Group 3: subcutaneous 5 mg/kg/dose, 40 mM phosphate buffer pH 4.0 + 2.5% dextrose suspension"}, "[4]": {"conditions": "Group 3: subcutaneous 5 mg/kg/dose, 40 mM phosphate buffer pH 4.0 + 2.5% dextrose suspension, 0.25 hr"}, "[5]": {"conditions": "Group 3: subcutaneous 5 mg/kg/dose, 40 mM phosphate buffer pH 4.0 + 2.5% dextrose suspension, 0.50 hr"}, "[6]": {"conditions": "Group 3: subcutaneous 5 mg/kg/dose, 40 mM phosphate buffer pH 4.0 + 2.5% dextrose suspension, 1.0 hr"}, "[7]": {"conditions": "Group 3: subcutaneous 5 mg/kg/dose, 40 mM phosphate buffer pH 4.0 + 2.5% dextrose suspension, 2.0 hr"}, "[8]": {"conditions": "Group 3: subcutaneous 5 mg/kg/dose, 40 mM phosphate buffer pH 4.0 + 2.5% dextrose suspension, 4.0 hr"}, "[9]": {"conditions": "Group 3: subcutaneous suspension, normalized by nominal dose 5 mg/kg"}, "[10]": {"conditions": "Group 5: intravitreal 2.5 mg/eye (~1.54 mg/kg), 40 mM phosphate buffer pH 4.0 suspension"}, "[11]": {"conditions": "Group 5: intravitreal 2.5 mg/eye (~1.54 mg/kg), 40 mM phosphate buffer pH 4.0 suspension, 1.0 hr"}, "[12]": {"conditions": "Group 5: intravitreal 2.5 mg/eye (~1.54 mg/kg), 40 mM phosphate buffer pH 4.0 suspension, 3.0 hr"}, "[13]": {"conditions": "Group 5: intravitreal 2.5 mg/eye (~1.54 mg/kg), 40 mM phosphate buffer pH 4.0 suspension, 6.0 hr"}, "[14]": {"conditions": "Group 5: intravitreal 2.5 mg/eye (~1.54 mg/kg), 40 mM phosphate buffer pH 4.0 suspension, 24.0 hr"}, "[15]": {"conditions": "Group 5: intravitreal 2.5 mg/eye (~1.54 mg/kg), 40 mM phosphate buffer pH 4.0 suspension, 48.0 hr"}, "[16]": {"conditions": "Group 5: intravitreal 2.5 mg/eye (~1.54 mg/kg), 40 mM phosphate buffer pH 4.0 suspension, 72.0 hr"}, "[17]": {"conditions": "Group 5: intravitreal suspension, normalized by nominal dose 1.54 mg/kg"}, "[18]": {"conditions": "Group 3 (subcutaneous 5 mg/kg/dose, suspension), 0.5 hr"}, "[19]": {"conditions": "Group 3 (subcutaneous 5 mg/kg/dose, suspension), 2.0 hr, BLOQ = below 0.2 ng/mL"}, "[20]": {"conditions": "Group 5 (intravitreal 2.5 mg/eye, suspension), 6.0 hr"}, "[21]": {"conditions": "Group 5 (intravitreal 2.5 mg/eye, suspension), 24 hr"}, "[22]": {"conditions": "Group 5 (intravitreal 2.5 mg/eye, suspension), 48 hr"}}, "note": "“And” between values parts separate entries of the source, which are not always exact repeats. Identical values can stand only once."}
{"smiles": "COC(=O)N[C@@H](Cc1ccccc1)C(=O)N[C@@H](Cc1ccc(NS(=O)(=O)O)cc1)c1csc(-c2cccs2)n1", "note": "[Compound 1 free acid]", "values": [{"measurement": "plasma AUClast (± SE)", "setting": "[1]; [3]", "value": "864 ± 69 ng·h/mL and 864 ng·h/mL"}, {"measurement": "plasma AUC∞", "setting": "[1]; [3]", "value": 1198, "unit": "ng·h/mL"}, {"measurement": "plasma Cmax (± SE)", "setting": "[1]; [3]", "value": "395 ± 170 ng/mL and 395 ng/mL"}, {"measurement": "plasma MRTlast", "setting": "[1]; [3]", "value": 1.58, "unit": "h"}, {"measurement": "plasma t1/2", "setting": "[1]; [3]", "value": 2.12, "unit": "h"}, {"measurement": "plasma tmax", "setting": "[1]; [3]", "value": 0.25, "unit": "h"}, {"measurement": "plasma Average conc.", "setting": "[1]; [4]", "value": 395, "unit": "ng/mL"}, {"measurement": "plasma Conc., individual rabbit", "setting": "[1]; [4]", "value": "225 ng/mL and 565 ng/mL"}, {"measurement": "plasma Average conc.", "setting": "[1]; [5]", "value": 337, "unit": "ng/mL"}, {"measurement": "plasma Conc., individual rabbit", "setting": "[1]; [5]", "value": "272 ng/mL and 401 ng/mL"}, {"measurement": "plasma Average conc.", "setting": "[1]; [6]", "value": 295, "unit": "ng/mL"}, {"measurement": "plasma Conc., individual rabbit", "setting": "[1]; [6]", "value": "300 ng/mL and 289 ng/mL"}, {"measurement": "plasma Average conc.", "setting": "[1]; [7]", "value": 206, "unit": "ng/mL"}, {"measurement": "plasma Conc., individual rabbit", "setting": "[1]; [7]", "value": "194 ng/mL and 217 ng/mL"}, {"measurement": "plasma Average conc.", "setting": "[1]; [8]", "value": 110, "unit": "ng/mL"}, {"measurement": "plasma Conc., individual rabbit", "setting": "[1]; [8]", "value": "111 ng/mL and 108 ng/mL"}, {"measurement": "plasma AUClast, dose normalized", "setting": "[1]; [9]", "value": "173 ± 13.8 kg·ng·h/mL/mg and 173 kg·ng·h/mL/mg"}, {"measurement": "plasma AUC∞, dose normalized", "setting": "[1]; [9]", "value": 240, "unit": "kg·ng·h/mL/mg"}, {"measurement": "plasma AUClast (± SE)", "setting": "[1]; [10]", "value": "707 ± 53.1 ng·h/mL and 707 ng·h/mL"}, {"measurement": "plasma AUC∞", "setting": "[1]; [10]", "value": 746, "unit": "ng·h/mL"}, {"measurement": "plasma Cmax (± SE)", "setting": "[1]; [10]", "value": "25.3 ± 9.30 ng/mL and 25.3 ng/mL"}, {"measurement": "plasma MRTlast", "setting": "[1]; [10]", "value": 19.1, "unit": "h"}, {"measurement": "plasma t1/2", "setting": "[1]; [10]", "value": 16.5, "unit": "h"}, {"measurement": "plasma tmax", "setting": "[1]; [10]", "value": 1.00, "unit": "h"}, {"measurement": "plasma Average conc.", "setting": "[1]; [11]", "value": 25.3, "unit": "ng/mL"}, {"measurement": "plasma Conc., individual rabbit", "setting": "[1]; [11]", "value": "34.6 ng/mL and 16.0 ng/mL"}, {"measurement": "plasma Average conc.", "setting": "[1]; [12]", "value": 24.4, "unit": "ng/mL"}, {"measurement": "plasma Conc., individual rabbit", "setting": "[1]; [12]", "value": "28.4 ng/mL and 20.4 ng/mL"}, {"measurement": "plasma Average conc.", "setting": "[1]; [13]", "value": 23.1, "unit": "ng/mL"}, {"measurement": "plasma Conc., individual rabbit", "setting": "[1]; [13]", "value": "22.0 ng/mL and 24.1 ng/mL"}, {"measurement": "plasma Average conc.", "setting": "[1]; [14]", "value": 12.3, "unit": "ng/mL"}, {"measurement": "plasma Conc., individual rabbit", "setting": "[1]; [14]", "value": "9.96 ng/mL and 14.7 ng/mL"}, {"measurement": "plasma Average conc.", "setting": "[1]; [15]", "value": 3.63, "unit": "ng/mL"}, {"measurement": "plasma Conc., individual rabbit", "setting": "[1]; [15]", "value": "2.69 ng/mL and 4.57 ng/mL"}, {"measurement": "plasma Average conc.", "setting": "[1]; [16]", "value": 1.65, "unit": "ng/mL"}, {"measurement": "plasma Conc., individual rabbit", "setting": "[1]; [16]", "value": "1.83 ng/mL and 1.46 ng/mL"}, {"measurement": "plasma tmax", "setting": "[1]; Group 5: intravitreal 2.5 mg/eye (~1.54 mg/kg), 40 mM phosphate buffer pH 4.0 suspension, listed as Compound 1 (free acid)", "value": 1, "unit": "h"}, {"measurement": "plasma AUClast, dose normalized", "setting": "[1]; [17]", "value": "459 ± 34.5 kg·ng·h/mL/mg and 459 kg·ng·h/mL/mg"}, {"measurement": "plasma AUC∞, dose normalized", "setting": "[1]; [17]", "value": 484, "unit": "kg·ng·h/mL/mg"}, {"measurement": "vitreous humor Average Conc.", "setting": "[2]; [18]", "value": 0.40, "unit": "ng/g"}, {"measurement": "vitreous humor Conc. OS", "setting": "[2]; [18]", "value": 0.227, "unit": "ng/mL"}, {"measurement": "vitreous humor Average Conc.", "setting": "[2]; Group 3 (subcutaneous 5 mg/kg/dose, suspension), 1.0 hr", "value": 0.41, "unit": "ng/g"}, {"measurement": "vitreous humor Conc. OS", "setting": "[2]; Group 3 (subcutaneous 5 mg/kg/dose, suspension), 1.0 hr, BLOQ = below 0.2 ng/mL", "value": "BLOQ"}, {"measurement": "vitreous humor Conc. OD", "setting": "[2]; [19]", "value": "BLOQ"}, {"measurement": "vitreous humor Conc. OS", "setting": "[2]; [19]", "value": "BLOQ"}, {"measurement": "vitreous humor Average Conc.", "setting": "[2]; Group 3 (subcutaneous 5 mg/kg/dose, suspension), 4.0 hr", "value": 0.41, "unit": "ng/g"}, {"measurement": "vitreous humor Conc. OD", "setting": "[2]; Group 3 (subcutaneous 5 mg/kg/dose, suspension), 4.0 hr, BLOQ = below 0.2 ng/mL", "value": "BLOQ"}, {"measurement": "Average Peak Concentration, Vitreous Humor", "setting": "[2]; Group 3: subcutaneous 5 mg/kg/dose", "value": 0.40, "unit": "ng/g"}, {"measurement": "vitreous humor Average Conc.", "setting": "[2]; [20]", "value": 479750, "unit": "ng/g"}, {"measurement": "vitreous humor Conc. OD", "setting": "[2]; [20]", "value": "592000 ng/mL and 432000 ng/mL"}, {"measurement": "vitreous humor Average Conc.", "setting": "[2]; [21]", "value": 408750, "unit": "ng/g"}, {"measurement": "vitreous humor Conc. OD", "setting": "[2]; [21]", "value": "296000 ng/mL and 491000 ng/mL"}, {"measurement": "vitreous humor Conc. OS", "setting": "[2]; [21]", "value": "528000 ng/mL and 320000 ng/mL"}, {"measurement": "vitreous humor Average Conc.", "setting": "[2]; [22]", "value": 97800, "unit": "ng/g"}, {"measurement": "vitreous humor Conc. OD", "setting": "[2]; [22]", "value": "75900 ng/mL and 68300 ng/mL"}, {"measurement": "vitreous humor Conc. OS", "setting": "[2]; [22]", "value": "148000 ng/mL and 99000 ng/mL"}, {"measurement": "vitreous humor Average Conc.", "setting": "[2]; Group 5 (intravitreal 2.5 mg/eye, suspension), 72 hr", "value": 65350, "unit": "ng/g"}, {"measurement": "Average Peak Concentration, Vitreous Humor", "setting": "[2]; Group 5: intravitreal 1.54 mg/kg/dose", "value": 479750, "unit": "ng/g"}]}
{"smiles": "COC(=O)N[C@@H](Cc1ccccc1)C(=O)N[C@@H](Cc1ccc(NS(=O)(=O)O)cc1)c1csc(-c2cccs2)n1", "note": "[Compound 1]", "values": [{"measurement": "systemic exposure, as measured in plasma", "setting": "[1]; all routes and formulations", "value": "confirmed"}]}
